From ChEMBL document CHEMBL5365485 (J Med Chem, 2023)
Calls of active or inactive are those of the source. The calls are words filed in the database; no cut-off is given here.

Assays:
[1] = molecular target: Hypoxia-inducible factor 1-alpha (Homo sapiens) (UniProt Q16665); assay: Induction of HIF-1alpha transcription activity in human HeLa cells incubated for 32 hrs by HRE-luciferase based assay; assay type: cell-based
[2] = molecular target: Hypoxia-inducible factor 1-alpha (Homo sapiens) (UniProt Q16665); assay: Induction of HIF-1alpha transcription activity in human U2OS cells incubated for 32 hrs by HRE-luciferase based assay; assay type: cell-based
[3] = molecular target: Hypoxia-inducible factor 1-alpha (Homo sapiens) (UniProt Q16665); assay: Induction of HIF-1alpha transcription activity in human HeLa cells assessed as increase in CA9 mRNA level at 50 uM incubated for 16 hrs by RT-qPCR analysis; assay type: cell-based
[4] = molecular target: Hypoxia-inducible factor 1-alpha (Homo sapiens) (UniProt Q16665); assay: Stabilization of HIF-1alpha in human HeLa cells at 50 uM incubated for 2 hrs by Western blot analysis relative to VH298; assay type: cell-based
[5] = molecular target: Hypoxia-inducible factor 1-alpha (Homo sapiens) (UniProt Q16665); assay: Stabilization of HIF-1alpha in HEK293 cells at 50 uM incubated for 2 hrs by Western blot analysis relative to VH298; assay type: cell-based
[6] = molecular target: Hypoxia-inducible factor 1-alpha (Homo sapiens) (UniProt Q16665); assay: Stabilization of hydroxylated HIF-1alpha in human HeLa cells at 50 uM incubated for 2 hrs by Western blot analysis relative to VH298; assay type: cell-based
[7] = molecular target: Hypoxia-inducible factor 1-alpha (Homo sapiens) (UniProt Q16665); assay: Stabilization of hydroxylated HIF-1alpha in HEK293 cells at 50 uM incubated for 2 hrs by Western blot analysis relative to VH298; assay type: cell-based
[8] = molecular target: Von Hippel-Lindau disease tumor suppressor/Elongin B/Elongin C (Homo sapiens) (UniProt P40337+Q15370+Q15369); assay: Binding affinity to biotinylated VHL/Elongin B/Elongin C (unknown origin) immobilized in SA sensor chip assessed as second-order on-rate constant for association (Kon) by SPR analysis; assay type: protein-complex assay
HeLa [9] = assay: Upregulation of HIF-1alpha level in human HeLa cells at 10 to 100 uM incubated for 1 hr by immunoblot analysis; assay type: functional, cell-based; details: dose 10-100 µM
HeLa [10] = assay: Upregulation of hydroxylated HIF-1alpha level in human HeLa cells at 10 to 100 uM incubated for 1 hr by immunoblot analysis; assay type: functional, cell-based; details: dose 10-100 µM
[11] = molecular target: T1, von Hippel-Lindau disease tumor suppressor (Homo sapiens, UniProt P40337); assay: Inhibition of NanoLuc-fused VHL (unknown origin) transfected in live HEK293 cells using NanoGlo substrate incubated for 30 mins by tracer based NanoBRET assay; assay type: cell-based
[12] = molecular target: T1, von Hippel-Lindau disease tumor suppressor; assay: Inhibition of NanoLuc-fused VHL (unknown origin) transfected in permeabilized HEK293 cells using NanoGlo substrate incubated for 30 mins by tracer based NanoBRET assay; assay type: cell-based
[13] = molecular target: T2, Von Hippel-Lindau disease tumor suppressor/Elongin B/Elongin C (Homo sapiens, UniProt P40337); assay: Binding affinity to biotinylated VHL/Elongin B/Elongin C (unknown origin) immobilized in SA sensor chip assessed as dissociation constant by SPR analysis; assay type: protein-complex assay
[14] = molecular target: T2, Von Hippel-Lindau disease tumor suppressor/Elongin B/Elongin C; assay: Binding affinity to VHL (54 to 213 residues)/N-terminal Avi-tagged biotinylated-Elongin B (1 to 104 residues)/Elongin C (17 to 112 residues) (unknown origin) expressed in Escherichia coli cells immobilized in SA sensor chip assessed as dissociation constant by SPR analysis
HeLa [15] = assay: Upregulation of HIF-1alpha level in human HeLa cells at 50 uM incubated for 1 hr by immunoblot analysis; assay type: functional, cell-based
HeLa [16] = assay: Upregulation of hydroxylated HIF-1alpha level in human HeLa cells at 50 uM incubated for 1 hr by immunoblot analysis; assay type: functional, cell-based
[17] = molecular target: Hypoxia-inducible factor 1-alpha (Homo sapiens) (UniProt Q16665); assay: Induction of HIF-1alpha transcription activity in human HeLa cells at 150 uM incubated for 32 hrs by HRE-luciferase based assay; assay type: cell-based
[18] = molecular target: Hypoxia-inducible factor 1-alpha (Homo sapiens) (UniProt Q16665); assay: Induction of HIF-1alpha transcription activity in human U2OS cells at 150 uM incubated for 32 hrs by HRE-luciferase based assay; assay type: cell-based
[19] = molecular target: T2, Von Hippel-Lindau disease tumor suppressor/Elongin B/Elongin C; assay: Binding affinity to N-terminal His6-tagged VHL (54 to 213 residues)/Elongin B (1 to 104 residues)/Elongin C (17 to 112 residues) (unknown origin) expressed in Escherichia coli BL21(DE3) cells assessed as dissociation constant by ITC analysis
[20] = molecular target: T2, Von Hippel-Lindau disease tumor suppressor/Elongin B/Elongin C; assay: Inhibition of VHL/Elongin B/Elongin C (unknown origin) using FAM-DEALA-Hyp-YIPD as substrate by fluorescence polarization assay; assay type: protein-complex assay

Hypoxia-inducible factor 1-alpha (Homo sapiens), sequence (Q16665 whole entry, looked up): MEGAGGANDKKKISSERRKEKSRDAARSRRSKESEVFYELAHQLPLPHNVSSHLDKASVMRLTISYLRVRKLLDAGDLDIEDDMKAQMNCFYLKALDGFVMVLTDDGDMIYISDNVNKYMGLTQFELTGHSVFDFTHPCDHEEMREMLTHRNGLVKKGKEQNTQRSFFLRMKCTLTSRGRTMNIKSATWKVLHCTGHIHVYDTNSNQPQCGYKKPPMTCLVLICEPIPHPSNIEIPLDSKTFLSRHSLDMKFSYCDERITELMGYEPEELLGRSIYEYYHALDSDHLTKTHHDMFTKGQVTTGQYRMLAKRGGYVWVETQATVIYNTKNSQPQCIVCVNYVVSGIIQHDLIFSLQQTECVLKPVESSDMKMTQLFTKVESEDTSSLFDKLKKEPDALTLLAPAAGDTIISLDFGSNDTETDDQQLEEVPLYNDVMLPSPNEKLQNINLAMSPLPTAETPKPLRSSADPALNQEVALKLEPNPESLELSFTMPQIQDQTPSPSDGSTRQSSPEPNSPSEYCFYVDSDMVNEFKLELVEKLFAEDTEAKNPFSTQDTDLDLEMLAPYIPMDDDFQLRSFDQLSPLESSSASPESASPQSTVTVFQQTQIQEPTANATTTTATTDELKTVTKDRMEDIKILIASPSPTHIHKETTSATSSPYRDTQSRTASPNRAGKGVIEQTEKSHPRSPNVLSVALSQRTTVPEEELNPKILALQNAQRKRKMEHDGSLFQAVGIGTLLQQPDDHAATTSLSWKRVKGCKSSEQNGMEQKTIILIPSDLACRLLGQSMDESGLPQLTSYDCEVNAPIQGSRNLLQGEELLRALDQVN
T1 sequence (P40337 whole entry, the tested form may be a part): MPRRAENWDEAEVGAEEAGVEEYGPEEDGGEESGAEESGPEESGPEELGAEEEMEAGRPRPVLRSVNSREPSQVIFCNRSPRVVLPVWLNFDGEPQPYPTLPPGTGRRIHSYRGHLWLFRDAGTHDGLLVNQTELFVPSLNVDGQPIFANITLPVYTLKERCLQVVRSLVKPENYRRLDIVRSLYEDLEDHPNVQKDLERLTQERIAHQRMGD
Von Hippel-Lindau disease tumor suppressor/Elongin B/Elongin C (Homo sapiens), sequence (P40337 whole entry, looked up): as the sequence (P40337 whole entry, the tested form may be a part) above
Von Hippel-Lindau disease tumor suppressor/Elongin B/Elongin C (Homo sapiens), sequence (Q15369 whole entry, looked up): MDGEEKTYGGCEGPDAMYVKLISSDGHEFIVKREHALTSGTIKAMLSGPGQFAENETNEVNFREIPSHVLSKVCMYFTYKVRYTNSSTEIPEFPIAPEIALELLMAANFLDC
Von Hippel-Lindau disease tumor suppressor/Elongin B/Elongin C (Homo sapiens), sequence (Q15370 whole entry, looked up): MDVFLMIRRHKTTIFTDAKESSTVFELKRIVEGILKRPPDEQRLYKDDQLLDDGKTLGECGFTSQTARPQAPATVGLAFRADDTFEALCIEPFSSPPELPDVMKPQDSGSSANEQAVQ
T2 sequence (P40337 whole entry, looked up, the tested form may be a part): as the sequence (P40337 whole entry, the tested form may be a part) above

Cc1ncsc1-c1ccc(CNC(=O)[C@@H]2C[C@@H](O)CN2C(=O)[C@@H](NC(=O)C2(C#N)CC2)C(C)(C)C)cc1
Activity [1]: Dose-Dependent Effect
Activity [2]: Dose-Dependent Effect
Activity [3]: Active

Cc1cc(-c2scnc2C)ccc1[C@H](C)NC(=O)[C@@H]1C[C@@H](O)CN1C(=O)[C@@H](NC(=O)C1(F)CC1)C(C)(C)C
Activity [4]: 182%
Activity [5]: 224%
Activity [6]: 263%
Activity [7]: 208%
K [8]: 1 10^6/M/s
Activity (HeLa [9]): Active
Activity (HeLa [10]): Active
IC50 [11]: 164 nM
IC50 [12]: 122 nM
Activity [1]: Dose-Dependent Effect
Activity [2]: Dose-Dependent Effect
Activity [3]: Active

COc1cc(-c2scnc2C)c(F)cc1[C@H](C)NC(=O)[C@@H]1C[C@@H](O)CN1C(=O)[C@@H](NC(=O)C1(F)CC1)C(C)(C)C
Activity [4]: 128%
Activity [5]: 145%
Activity [6]: 179%
Activity [7]: 137%
Activity (HeLa [9]): Active
Activity (HeLa [10]): Active
Activity [1]: Dose-Dependent Effect
Activity [2]: Dose-Dependent Effect
Activity [3]: Active

Cc1ncsc1-c1ccc([C@H](C)NC(=O)[C@@H]2C[C@@H](O)CN2C(=O)[C@@H](NC(=O)C2(C#N)CC2)C(C)(C)C)cc1F
Activity [4]: 105%
Activity [5]: 48%
Activity [6]: 123%
Activity [7]: 52%

Cc1cc(-c2scnc2C)ccc1[C@H](C)NC(=O)[C@@H]1C[C@@H](O)CN1C(=O)[C@@H](NC(=O)C1(C#N)CC1)C(C)(C)C
Activity [4]: 155%
Activity [5]: 90%
Activity [6]: 221%
Activity [7]: 110%

COc1cc(-c2scnc2C)c(F)cc1CNC(=O)[C@@H]1C[C@@H](O)CN1C(=O)[C@@H](NC(=O)C1(F)CC1)C(C)(C)C
Activity [4]: 95%
Activity [5]: 73%
Activity [6]: 98%
Activity [7]: 68%
K [8]: 1 10^6/M/s

Cc1cc(-c2scnc2C)c(F)cc1CNC(=O)[C@@H]1C[C@@H](O)CN1C(=O)[C@@H](NC(=O)C1(F)CC1)C(C)(C)C
Kd [13]: 72 nM
Activity [4]: 124%
Activity [5]: 110%
Activity [6]: 153%
Activity [7]: 76%
K [8]: 1 10^6/M/s

Cc1cc(-c2scnc2C)c(F)cc1[C@H](C)NC(=O)[C@@H]1C[C@@H](O)CN1C(=O)[C@@H](NC(=O)C1(F)CC1)C(C)(C)C
Activity [4]: 155%
Activity [5]: 152%
Activity [6]: 217%
Activity [7]: 137%
K [8]: 1 10^6/M/s
IC50 [11]: 366 nM

Cc1ncsc1-c1ccc(CNC(=O)[C@@H]2C[C@@H](O)CN2C(=O)[C@@H](NC(=O)C2(F)CC2)C(C)(C)C)cc1F
Activity [4]: 107%
Activity [5]: 89%
Activity [6]: 108%
Activity [7]: 75%
K [8]: 1 10^6/M/s

CC(=O)N[C@H](C(=O)N1C[C@H](O)C[C@H]1C(=O)NCc1ccc(-c2scnc2C)cc1C(F)(F)F)C(C)(C)C
Kd [14]: 268 nM

Cc1cc(-c2scnc2C)ccc1CNC(=O)[C@@H]1C[C@@H](O)CN1C(=O)[C@@H](NC(=O)C1(F)CC1)C(C)(C)C
Activity [4]: 116%
Activity [5]: 78%
Activity [6]: 120%
Activity [7]: 69%
K [8]: 1 10^6/M/s

CC(=O)N[C@H](C(=O)N1C[C@H](O)C[C@H]1C(=O)NCc1ccc(-c2scnc2C)c(C(F)(F)F)c1)C(C)(C)C
Kd [14]: 2990 nM

Cc1cc(-c2scnc2C)ccc1CNC(=O)[C@@H]1C[C@@H](O)CN1C(=O)[C@@H](NC(=O)C1(C#N)CC1)C(C)(C)C
Activity [4]: 89%
Activity [5]: 78%
Activity [6]: 88%
Activity [7]: 66%

Cc1ncsc1-c1ccc(CNC(=O)[C@@H]2C[C@@H](O)CN2C(=O)[C@@H](NC(=O)C2(C#N)CC2)C(C)(C)C)cc1F
Activity [4]: 83%
Activity [5]: 18%
Activity [6]: 74%
Activity [7]: 20%

Cc1ncsc1-c1ccc([C@H](C)NC(=O)[C@@H]2C[C@@H](O)CN2C(=O)[C@@H](NC(=O)C2(F)CC2)C(C)(C)C)cc1F
Activity [4]: 120%
Activity [5]: 92%
Activity [6]: 177%
Activity [7]: 102%
K [8]: 1 10^6/M/s

Cc1ncsc1-c1ccc(CNC(=O)[C@@H]2C[C@H](O)CN2C(=O)[C@@H](NC(=O)C2(C#N)CC2)C(C)(C)C)cc1
Activity (HeLa [15]): inactive
Activity (HeLa [16]): inactive
Activity [17]: inactive
Activity [18]: inactive

CC(=O)N[C@H](C(=O)N1C[C@H](O)[C@H](F)[C@H]1C(=O)NCc1ccc(-c2scnc2C)cc1)C(C)(C)C
Kd [19]: 244 nM

Cc1ncsc1-c1ccc(CNC(=O)[C@@H]2C[C@@H](O)CN2C(=O)Cc2cccc(N)c2C)cc1
IC50 [20]: 900 nM
